From ChEMBL document CHEMBL1134062, “Spirocyclic nonpeptide glycoprotein IIb-IIIa antagonists. Part 2: design of potent antagonists containing the 3-azaspiro[5.5]undecanes” (Bioorg Med Chem Lett, 2001)

What was measured:
[1] = target: Integrin alpha-IIb/beta-3 (Homo sapiens, UniProt P05106+P08514); experiment: In vitro inhibitory activity against blockage of binding of fibrinogen to purified human GPIIbIIIa; type: protein-complex assay
Homo sapiens = species on record: Homo sapiens; experiment: In vitro ability to inhibit the aggregation of ADP-stimulated human platelets; type: functional

Chain of Integrin alpha-IIb/beta-3 (P05106 27-788 limits assumed): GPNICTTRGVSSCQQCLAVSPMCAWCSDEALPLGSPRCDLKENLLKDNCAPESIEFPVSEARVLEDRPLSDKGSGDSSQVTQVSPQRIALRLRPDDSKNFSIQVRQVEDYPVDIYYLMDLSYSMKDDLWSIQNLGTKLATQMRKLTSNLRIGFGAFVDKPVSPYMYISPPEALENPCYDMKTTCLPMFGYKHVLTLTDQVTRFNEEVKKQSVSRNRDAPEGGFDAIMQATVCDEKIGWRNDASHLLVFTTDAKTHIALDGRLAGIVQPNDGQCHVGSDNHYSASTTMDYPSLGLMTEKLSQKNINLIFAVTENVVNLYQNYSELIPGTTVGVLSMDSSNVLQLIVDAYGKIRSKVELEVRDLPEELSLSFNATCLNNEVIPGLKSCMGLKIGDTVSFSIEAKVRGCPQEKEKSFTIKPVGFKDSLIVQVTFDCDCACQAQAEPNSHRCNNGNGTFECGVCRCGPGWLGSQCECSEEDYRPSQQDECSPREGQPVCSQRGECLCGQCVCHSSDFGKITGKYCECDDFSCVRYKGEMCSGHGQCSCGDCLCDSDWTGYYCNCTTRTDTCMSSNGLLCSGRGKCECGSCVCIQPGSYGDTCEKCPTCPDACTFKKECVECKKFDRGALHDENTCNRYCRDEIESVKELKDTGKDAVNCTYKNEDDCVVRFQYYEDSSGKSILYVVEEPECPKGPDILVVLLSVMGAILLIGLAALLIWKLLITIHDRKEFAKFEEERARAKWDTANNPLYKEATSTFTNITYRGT
Chain of Integrin alpha-IIb/beta-3 (P08514 32-887 limits assumed): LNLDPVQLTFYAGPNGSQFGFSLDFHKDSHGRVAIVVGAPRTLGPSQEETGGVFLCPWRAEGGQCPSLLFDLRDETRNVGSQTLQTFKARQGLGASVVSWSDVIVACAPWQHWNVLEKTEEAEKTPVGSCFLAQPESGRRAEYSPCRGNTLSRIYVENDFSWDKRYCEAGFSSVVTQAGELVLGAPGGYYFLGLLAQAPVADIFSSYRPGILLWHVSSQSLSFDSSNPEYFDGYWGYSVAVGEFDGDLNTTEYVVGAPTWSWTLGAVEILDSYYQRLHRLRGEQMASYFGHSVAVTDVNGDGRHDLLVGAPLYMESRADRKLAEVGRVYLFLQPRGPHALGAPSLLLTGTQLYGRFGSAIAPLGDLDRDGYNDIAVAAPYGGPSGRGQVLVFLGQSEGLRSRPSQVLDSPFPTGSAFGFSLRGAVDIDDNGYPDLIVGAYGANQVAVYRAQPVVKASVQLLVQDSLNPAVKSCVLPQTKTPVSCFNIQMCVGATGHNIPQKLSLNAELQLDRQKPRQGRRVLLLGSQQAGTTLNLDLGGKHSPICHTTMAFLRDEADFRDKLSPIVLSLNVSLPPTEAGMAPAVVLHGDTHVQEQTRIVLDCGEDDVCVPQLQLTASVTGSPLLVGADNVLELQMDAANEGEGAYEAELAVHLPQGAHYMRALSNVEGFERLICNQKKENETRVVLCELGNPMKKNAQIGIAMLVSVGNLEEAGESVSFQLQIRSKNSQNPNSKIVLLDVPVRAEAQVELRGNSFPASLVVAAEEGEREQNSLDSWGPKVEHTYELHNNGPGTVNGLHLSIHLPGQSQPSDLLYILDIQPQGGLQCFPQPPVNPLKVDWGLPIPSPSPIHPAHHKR
Chain of Integrin alpha-IIb/beta-3 (P08514 891-1039 limits assumed): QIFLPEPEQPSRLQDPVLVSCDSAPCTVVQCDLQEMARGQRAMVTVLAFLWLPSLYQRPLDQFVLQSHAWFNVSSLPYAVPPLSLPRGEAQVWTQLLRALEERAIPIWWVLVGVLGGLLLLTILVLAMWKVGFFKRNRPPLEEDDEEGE

Compound: C[C@@H](CC(=O)O)NC(=O)C1CCC2(CC1)CCN(c1ccncc1)CC2
- IC50 [1]: 616 nM
- IC50 (Homo sapiens): 14300 nM

Compound: CC(CNC(=O)C1CCC2(CC1)CCN(c1ccncc1)CC2)CC(=O)O (stereo not drawn)
- IC50 [1]: 332 nM
- IC50 (Homo sapiens): 4000 nM

Compound: CCCCS(=O)(=O)N[C@@H](CNC(=O)C1CCC2(CC1)CCN(c1ccncc1)CC2)C(=O)O
- IC50 (Homo sapiens): 179 nM

Compound: Cc1noc(C)c1S(=O)(=O)N[C@@H](CNC(=O)C1CCC2(CC1)CCN(c1ccncc1)CC2)C(=O)O
- IC50 (Homo sapiens): 40 nM

Compound: CCCCOC(=O)N[C@@H](CNC(=O)C1CCC2(CC1)CCN(c1ccncc1)CC2)C(=O)O
- IC50 [1]: 8 nM
- IC50 (Homo sapiens): 1300 nM

Compound: N=C(N)c1ccc(C(=O)N2CCC3(CCC(C(=O)O)CC3)CC2)cc1
- IC50 [1]: 15000 nM
- IC50 (Homo sapiens): 19700 nM

Compound: N=C(N)c1ccc(N2CCC3(CCC(C(=O)NCCC(=O)O)CC3)CC2)cc1
- IC50 [1]: 60 nM
- IC50 (Homo sapiens): 5500 nM

Compound: Cc1ccc(S(=O)(=O)N[C@@H](CNC(=O)C2CCC3(CC2)CCN(c2ccncc2)CC3)C(=O)O)cc1
- IC50 (Homo sapiens): 177 nM

Compound: O=C(O)C[C@@H](NC(=O)C1CCC2(CC1)CCN(c1ccncc1)CC2)c1ccccc1
- IC50 (Homo sapiens): 77000 nM

Compound: O=C(O)CNC1CCC2(CC1)CCN(c1ccncc1)CC2
- IC50 [1]: 160 nM
- IC50 (Homo sapiens): 890 nM

Compound: O=C(O)CCCC(=O)N1CCC2(CCC(C(=O)N3CCC(C4CCNCC4)CC3)CC2)CC1
- IC50 [1]: 100000 nM
- IC50 (Homo sapiens): 50000 nM

Compound: N=C(N)c1ccc(N2CCC3(CCC(C(=O)NCCCC(=O)O)CC3)CC2)cc1
- IC50 [1]: 5000 nM
- IC50 (Homo sapiens): 37100 nM

Compound: O=C(O)CCN1CCC2(CCC(C(=O)N3CCN(c4ccncc4)CC3)CC2)CC1
- IC50 [1]: 3450 nM
- IC50 (Homo sapiens): 7900 nM

Compound: O=C(O)CCCNC(=O)C1CCC2(CC1)CCN(c1ccncc1)CC2
- IC50 [1]: 319 nM
- IC50 (Homo sapiens): 12000 nM

Compound: O=C(O)COC1CCC2(CC1)CCN(c1ccncc1)CC2
- IC50 [1]: 250 nM
- IC50 (Homo sapiens): 1100 nM

Compound: N=C(N)c1ccc(C(=O)N2CCC3(CCC(C(=O)NCC(=O)O)CC3)CC2)cc1
- IC50 (Homo sapiens): 38500 nM

Compound: O=C(O)CCC(=O)N1CCC2(CCC(C(=O)N3CCC(C4CCNCC4)CC3)CC2)CC1
- IC50 [1]: 100000 nM
- IC50 (Homo sapiens): 50000 nM

Compound: O=C(O)CCNC1CCC2(CC1)CCN(c1ccncc1)CC2
- IC50 (Homo sapiens): 4500 nM

Compound: O=C(O)CN1CCC2(CCC(C(=O)N3CCN(c4ccncc4)CC3)CC2)CC1
- IC50 [1]: 364 nM
- IC50 (Homo sapiens): 117 nM

Compound: O=C(O)CN1CCC2(CCC(C(=O)N3CCC(C4CCNCC4)CC3)CC2)CC1
- IC50 [1]: 250 nM
- IC50 (Homo sapiens): 289 nM

Compound: O=C(N[C@@H](CNC(=O)C1CCC2(CC1)CCN(c1ccncc1)CC2)C(=O)O)OCc1ccccc1
- IC50 [1]: 2 nM
- IC50 (Homo sapiens): 2700 nM

Compound: N[C@@H](CNC(=O)C1CCC2(CC1)CCN(c1ccncc1)CC2)C(=O)O
- IC50 [1]: 830 nM
- IC50 (Homo sapiens): 12200 nM
